Experimental findings from patent US8829007B2 (priority 2009, dated 2014) are described below.

Like-named read-outs stand apart in the source and are kept apart here.

The test system of assay [1] is influenza A virus (A/PR/8/34). Put plainly: microbe, parasite or virus in culture. It counts as cell-based.
For assay [2], the system named is A/PR/8/34 influenza virus. The assay is described as follows: microbe, parasite or virus in culture. It counts as cell-based.
[3] abbreviates: Influenza A virus, PR/8, MDCK, mean all, A/PR/8/34 infected MDCK cells, CPE assay, read-out: IC50.
The mark [4] stands for this setting: Influenza A virus, PR/8, MDCK, mean all, A/PR/8/34 influenza virus in MDCK cells, bDNA assay, read-out: EC50.
The mark [5] stands for this setting: Influenza A virus, PR/8, MDCK, MDCK cells infected with A/PR/8/34, survival of infected cells, class symbols, read-out: IC50 (mean all).
[6] abbreviates: Influenza A virus, PR/8, MDCK, MDCK cells infected with A/PR/8/34, replication of influenza virus (viral RNA, bDNA), class symbols, read-out: EC50 (mean all).
The mark [7] stands for this setting: […], replication of influenza virus (viral RNA, bDNA), class symbols, read-out: EC50 (mean all).
Where [8] appears, read: mean all, MDCK cells infected with A/PR/8/34, cell protection (CPE), read-out: IC50.
Where [9] appears, read: mean all, bDNA viral RNA in MDCK cells infected with A/PR/8/34, read-out: EC50.
Where [10] appears, read: Influenza A virus, PR/8, MDCK, MDCK cells infected with A/PR/8/34, cell protection (CPE), read-out: IC50 (mean all).
Setting [11] is: Influenza A virus, PR/8, MDCK, MDCK cells infected with A/PR/8/34, bDNA viral RNA, read-out: EC50 (mean all).

One may read the IC50 as the point on the concentration scale where inhibition reaches its midpoint. `CC(=O)N[C@H]1CCC[C@H](Nc2nc(-c3c[nH]c4ncc(Cl)cc34)ncc2F)C1.CC(N)=O` (relative stereo) [Compound 457, N-[trans-3-[[2-(5-chloro-1H-pyrrolo[2,3-b]pyridin-3-yl)-5-fluoro-pyrimidin-4-yl]amino]cyclohexyl]acetamide acetamide]: the IC50 in assay [1] (setting [3]) is under 5 µM. Besides, in assay [2] (setting [4]), the EC50 was under 5 µM.

With `CNC(=O)N[C@H]1CCC[C@H](Nc2nc(-c3c[nH]c4ncc(Cl)cc34)ncc2F)C1` (relative stereo) [Compound 458, 1-[trans-3-[[2-(5-chloro-1H-pyrrolo[2,3-b]pyridin-3-yl)-5-fluoro-pyrimidin-4-yl]amino]cyclohexyl]-3-methyl-urea], the IC50 in assay [1] (setting [3]) is under 5 µM. The EC50 in assay [2] (setting [4]) is under 5 µM.

For `CN(C)C(=O)N[C@H]1CCC[C@H](Nc2nc(-c3c[nH]c4ncc(Cl)cc34)ncc2F)C1` (relative stereo) [Compound 459, 3-[trans-3-[[2-(5-chloro-1H-pyrrolo[2,3-b]pyridin-3-yl)-5-fluoro-pyrimidin-4-yl]amino]cyclohexyl]-1,1-dimethyl-urea], the half-maximal inhibitory concentration (IC50) in assay [1] (setting [3]) is under 5 µM. Further, the EC50 in assay [2] (setting [4]) was under 5 µM.

In the case of `CNC(=O)[C@@H]1CCCC[C@@H]1Nc1nc(-c2c[nH]c3ncc(Cl)cc23)ncc1F` (relative stereo) [Compound 539, Cis-2-(2-(5-chloro-1H-pyrrolo[2,3-b]pyridin-3-yl)-5-fluoropyrimidin-4-ylamino)-N-methylcyclohexanecarboxamide], in assay [1] (setting [5]), the IC50 was 5 to 20 µM. Also, in assay [2] (setting [6]), the EC50 was under 5 µM.

As to `CN(C)C(=O)[C@@H]1CCCC[C@@H]1Nc1nc(-c2c[nH]c3ncc(Cl)cc23)ncc1F` (relative stereo) [Compound 543, Cis-2-(2-(5-chloro-1H-pyrrolo[2,3-b]pyridin-3-yl)-5-fluoropyrimidin-4-ylamino)-N,N-dimethylcyclohexanecarboxamide], the IC50 in assay [1] (setting [5]) was under 5 µM. In addition, in assay [2] (setting [6]), the EC50 was under 5 µM.

As for `NC(=O)[C@@H]1CCCC[C@@H]1Nc1nc(-c2c[nH]c3ncc(Cl)cc23)ncc1F` (relative stereo) [Compound 544, cis-2-(2-(5-chloro-1H-pyrrolo[2,3-b]pyridin-3-yl)-5-fluoropyrimidin-4-ylamino)cyclohexanecarboxamide], in assay [1] (setting [5]), the IC50 was over 20 µM. Moreover, the EC50 in assay [2] (setting [6]) is under 5 µM.

For the molecule `O=C(O)[C@@H]1CCCC[C@@H]1Nc1nc(-c2c[nH]c3ncc(Cl)cc23)ncc1F` (relative stereo) [Compound 554], in assay [1] (read-out: IC50 (mean all)), the IC50 was over 10 µM. Moreover, the EC50 in assay [2] (setting [7]) lay within 5 to 10 µM.

For the molecule `COCC(=O)N[C@@H]1CCCC[C@H]1CNc1nc(-c2c[nH]c3ncc(Cl)cc23)ncc1F` (relative stereo) [Compound 556, N-(trans-2-((2-(5-chloro-1H-pyrrolo[2,3-b]pyridin-3-yl)-5-fluoropyrimidin-4-ylamino)methyl)cyclohexyl)-2-methoxyethanamide], the IC50 in assay [1] (setting [5]) is over 10 µM. Moreover, the EC50 in assay [2] (setting [6]) is under 5 µM.

Take `O=C(O)[C@@H]1CCC[C@@H]1Nc1nc(-c2c[nH]c3ncc(Cl)cc23)ncc1F` (relative stereo) [Compound 558, Cis-2-(2-(5-chloro-1H-pyrrolo[2,3-b]pyridin-3-yl)-5-fluoropyrimidin-4-ylamino)cyclopentanecarboxylic acid]: in assay [1] (setting [5]), the IC50 was under 5 µM. Moreover, the EC50 in assay [2] (setting [6]) is under 5 µM.

Turning to `O=C(O)[C@@H]1CCCC[C@@H]1Nc1nc(-c2c[nH]c3ncc(Cl)cc23)ncc1F` (relative stereo) [Compound 559, Cis-2-(2-(5-chloro-1H-pyrrolo[2,3-b]pyridin-3-yl)-5-fluoropyrimidin-4-ylamino)cyclohexanecarboxylic acid], the IC50 in assay [1] (setting [5]) was under 5 µM. The EC50 in assay [2] (setting [6]) is under 5 µM.

On to `CN(C)C(=O)N[C@@H]1CCCC[C@H]1CNc1nc(-c2c[nH]c3ncc(Cl)cc23)ncc1F` (relative stereo) [Compound 564, 3-(trans-2-((2-(5-chloro-1H-pyrrolo[2,3-b]pyridin-3-yl)-5-fluoropyrimidin-4-ylamino)methyl)cyclohexyl)-1,1-dimethylurea], for which the IC50 in assay [1] (setting [5]) was over 10 µM. Besides, the EC50 in assay [2] (setting [6]) is under 5 µM.

For `CC[C@@]1(C(=O)O)CCCC[C@H]1Nc1nc(-c2c[nH]c3ncc(Cl)cc23)ncc1F` (relative stereo) [Compound 586, trans-2-(2-(5-chloro-1H-pyrrolo[2,3-b]pyridin-3-yl)-5-fluoropyrimidin-4-ylamino)-1-ethylcyclohexanecarboxylic acid], in assay [1] (read-out: IC50 (mean all)), the IC50 is under 5 µM. Besides, the EC50 in assay [2] (setting [7]) is under 5 µM.

In the case of `CC1(O)CCCCC1Nc1nc(-c2c[nH]c3ncc(Cl)cc23)ncc1F` (single isomer, unassigned) [Compound 563, 2-(2-(5-chloro-1H-pyrrolo[2,3-b]pyridin-3-yl)-5-fluoropyrimidin-4-ylamino)-1-methylcyclohexanol], the IC50 in assay [1] (setting [5]) is under 5 µM. For the same molecule, in assay [2] (setting [6]), the EC50 is under 5 µM.

As to `CCNC(=O)OC1CCCC(Nc2nc(-c3c[nH]c4ncc(Cl)cc34)ncc2F)C1` (single isomer, unassigned) [Compound 609], the IC50 in assay [1] (CPE assay, A/PR/8/34 infected MDCK cells, class symbols, read-out: IC50 (mean all)) is under 5 µM. The EC50 in assay [2] (bDNA assay, A/PR/8/34 influenza virus replication in MDCK cells, class symbols, read-out: EC50 (mean all)) is under 5 µM.

`CCC1(O)CCCC(Nc2nc(-c3c[nH]c4ncc(Cl)cc34)ncc2F)C1` (single isomer, unassigned) [Compound 709]: in assay [1] (setting [8]), the IC50 is under 5 µM. The EC50 in assay [2] (setting [9]) is under 5 µM.

For `CCC1(O)CCCC(Nc2nc(-c3c[nH]c4ncc(Cl)cc34)ncc2F)C1` (single isomer, unassigned) [Compound 710], in assay [1] (setting [8]), the IC50 was under 5 µM. The EC50 in assay [2] (setting [9]) was under 5 µM.

Regarding `CCNC(=O)OC1(C)CCCC(Nc2nc(-c3c[nH]c4ncc(Cl)cc34)ncc2F)C1` (single isomer, unassigned) [Compound 722], in assay [1] (setting [8]), the IC50 is under 5 µM. In addition, in assay [2] (setting [9]), the EC50 is under 5 µM.

On to `O=C(NC1CC2CC(Nc3nc(-c4c[nH]c5ncc(F)cc45)ncc3F)C1C2)N1CCCC1` (single isomer, unassigned) [Compound 1045, N-[6-[[5-fluoro-2-(5-fluoro-1H-pyrrolo[2,3-b]pyridin-3-yl)pyrimidin-4-yl]amino]norbornan-2-yl]pyrrolidine-1-carboxamide], for which the IC50 in assay [1] (Influenza A virus, PR/8, MDCK, MDCK cells, A/PR/8/34, ATP readout, mean all, read-out: Cell Flu, MDCK protection, ATP (All: IC50: uM)(Mean (All))) is under 5 µM. Besides, the EC50 in assay [2] (Influenza A virus, PR/8, 30 h, HA(−) 30 hr, A/PR/8, bDNA, mean all, read-out: Cell Influenza HA(−) 30 hr A/PR/8 bDNA:bDNA EC50 uM(Mean (All))) was under 5 µM.

Take `C[C@]1(C(=O)O)CCCC[C@@H]1Nc1nc(-c2c[nH]c3ncc(Cl)cc23)ncc1F` (stereo in doubt) [Compound 643, Trans-2-[[2-(5-chloro-1H-pyrrolo[2,3-b]pyridin-3-yl)-5-fluoro-pyrimidin-4-yl]amino]-1-methyl-cyclohexanecarboxylic acid]: the IC50 in assay [1] (Influenza A virus, PR/8, MDCK, CPE assay, A/PR/8/34 infected MDCK cells, class symbols, read-out: IC50 (mean all)) was under 5 µM. For the same molecule, in assay [2] (Influenza A virus, PR/8, MDCK, bDNA assay, A/PR/8/34 influenza virus replication in MDCK cells, class symbols, read-out: EC50 (mean all)), the EC50 was under 5 µM.

Turning to `OC1CCCC1Nc1nc(-c2c[nH]c3ncc(Cl)cc23)ncc1F` (centres unmarked) [Compound 14, 2-(2-(5-chloro-1H-pyrrolo[2,3-b]pyridin-3-yl)-5-fluoropyrimidin-4-ylamino)cyclopentanol], in assay [1] (setting [10]), the IC50 was 5 to 20 µM. Also, the EC50 in assay [2] (setting [11]) is under 5 µM.

As for `CC(C)(C)OC(=O)N1CCC[C@H](CNc2nc(-c3c[nH]c4ncc(Cl)cc34)ncc2F)C1` [Compound 15, (R)-tert-butyl 3-((2-(5-chloro-1H-pyrrolo[2,3-b]pyridin-3-yl)-5-fluoropyrimidin-4-ylamino)methyl)piperidine-1-carboxylate], in assay [1] (setting [10]), the IC50 is 5 to 20 µM. Besides, the EC50 in assay [2] (setting [11]) was under 5 µM.

For `C=CCOC(=O)N1CCC[C@@H](CNc2nc(-c3c[nH]c4ncc(Cl)cc34)ncc2F)C1` [Compound 17, (S)-allyl 3-((2-(5-chloro-1H-pyrrolo[2,3-b]pyridin-3-yl)-5-fluoropyrimidin-4-ylamino)methyl)piperidine-1-carboxylate], the IC50 in assay [1] (setting [10]) fell in the range of 5 to 20 µM. In addition, in assay [2] (setting [11]), the EC50 was under 5 µM.

Turning to `O=C(Nc1ccsc1)N1CCC[C@@H](CNc2nc(-c3c[nH]c4ncc(Cl)cc34)ncc2F)C1` [Compound 22, (S)-3-((2-(5-chloro-1H-pyrrolo[2,3-b]pyridin-3-yl)-5-fluoropyrimidin-4-ylamino)methyl)-N-(thiophen-3-yl)piperidine-1-carboxamide], the concentration for half-maximal inhibition (IC50) in assay [1] (setting [10]) was under 5 µM. In assay [2] (setting [11]), the EC50 is under 5 µM.

On to `COC(=O)N1CCC[C@@H](CNc2nc(-c3c[nH]c4ncc(Cl)cc34)ncc2F)C1` [Compound 23, (S)-methyl 3-((2-(5-chloro-1H-pyrrolo[2,3-b]pyridin-3-yl)-5-fluoropyrimidin-4-ylamino)methyl)piperidine-1-carboxylate], for which, in assay [1] (setting [10]), the IC50 was under 5 µM. Besides, the EC50 in assay [2] (setting [11]) is under 5 µM.

Regarding `CCOC(=O)CNC(=O)N1CCC[C@@H](CNc2nc(-c3c[nH]c4ncc(Cl)cc34)ncc2F)C1` [Compound 25, (S)-ethyl 2-(3-((2-(5-chloro-1H-pyrrolo[2,3-b]pyridin-3-yl)-5-fluoropyrimidin-4-ylamino)methyl)piperidine-1-carboxamido)ethanoate], in assay [1] (setting [10]), the IC50 was under 5 µM. Moreover, in assay [2] (setting [11]), the EC50 was under 5 µM.
